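Dose response: 5 concentrations. Exposure: 48 h. Format: 96-well plates. Endpoint: linear interpolation; highest concentration if not reached. GI50 is the concentration that inhibits growth by half. At the TGI there is no net growth.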
Columns and labels:
Test in all cases: NCI-60 cell line screen, 48 h
SF-539 CNS = test system: SF-539 CNS
NCI/ADR-RES ovarian = test system: NCI/ADR-RES ovarian
COLO 205 colon = test system: COLO 205 colon
NCI-H522 lung = test system: NCI-H522 lung
HS 578T breast = test system: HS 578T breast
SK-OV-3 ovarian = test system: SK-OV-3 ovarian
HL-60(TB) leukemia = test system: HL-60(TB) leukemia
M14 melanoma = test system: M14 melanoma
A549 NSCLC = test system: A549 NSCLC
786-0 renal = test system: 786-0 renal

SMILES	TGI (SF-539 CNS) [µM]	TGI (NCI/ADR-RES ovarian) [µM]	TGI (COLO 205 colon) [µM]	TGI (NCI-H522 lung) [µM]	TGI (HS 578T breast) [µM]	TGI (SK-OV-3 ovarian) [µM]	TGI (HL-60(TB) leukemia) [µM]	TGI (M14 melanoma) [µM]	TGI (A549 NSCLC) [µM]	TGI (786-0 renal) [µM]	GI50 (SF-539 CNS) [µM]	GI50 (NCI/ADR-RES ovarian) [µM]	GI50 (COLO 205 colon) [µM]	GI50 (NCI-H522 lung) [µM]	GI50 (HS 578T breast) [µM]	GI50 (SK-OV-3 ovarian) [µM]	GI50 (HL-60(TB) leukemia) [µM]	GI50 (M14 melanoma) [µM]	GI50 (A549 NSCLC) [µM]	GI50 (786-0 renal) [µM]
O=C1C2C3C=CC(C2C(=O)N1CN1CCOCC1)C1C2C(=O)N(CN4CCOCC4)C(=O)C2C31 (stereo not drawn)	> 79.6	> 100	> 56.9	> 55.2	> 100	> 100	> 59.5	> 57.2	> 86.9	> 60.9	–	–	–	–	–	–	–	–	–	–
NC(=O)c1c(NC(=O)c2ccc(C(F)(F)F)cc2Cl)sc2c1CCC(=O)C2	1.04	3.38	1.49	0.844	5.94	7.56	1.09	1.89	14.4	15.6	0.28	0.448	0.382	0.186	0.368	2.47	0.273	0.355	2.69	0.475
O=C1c2c[n+](Cc3ccccc3)ccc2-c2nc3ccccc3c3ccnc1c23	1.17	33.3	1.11	1.65	10.2	2.56	1.93	0.969	1.99	2.76	0.545	7.3	0.409	0.518	1.03	0.568	0.72	0.208	0.323	0.829
O=C1c2ccccc2-n2c1nc1ccc([N+](=O)[O-])cc1c2=O	> 100	> 100	> 100	> 100	> 100	> 100	43.5	> 100	> 100	> 100	–	–	–	–	–	–	–	–	–	–
CC1=C(C(=O)Nc2cc(F)c(F)cc2F)C(c2ccc(N(C)C)cc2)C(C(=O)Nc2cc(F)c(F)cc2F)=C(C)N1	> 74.1	> 100	> 100	51	> 100	> 100	> 61.2	> 100	> 60.5	> 100	–	41.2	–	–	28.2	–	–	–	–	–
COc1cccc2c1C(=O)c1c(O)c3c(c(O)c1C2=O)C[C@@](O)(C(=O)CO)C[C@@H]3OC1CC2C(OCN2CN2COC3C(C)OC(O[C@H]4C[C@](O)(C(=O)CO)Cc5c(O)c6c(c(O)c54)C(=O)c4c(OC)cccc4C6=O)CC32)C(C)O1 (stereo partly drawn)	0.0638	0.198	0.0216	0.0238	> 1	0.0207	–	0.0405	–	0.0343	0.0112	0.0187	0.00664	0.00638	0.0394	0.00699	0.000329	0.0067	0.0056	0.00274
O=C(/C=C/c1cccc(Cl)c1)c1ccccc1	28.8	49.8	31.7	–	7.45	30.9	6.58	13.5	29.3	22.8	13.6	16.3	16.8	–	2.1	16.7	2.96	3.78	14.9	10.6
Cc1nc2sc(C(=O)Nc3cccc4c3OCCO4)c(N)c2cc1C(C)O (stereo not drawn)	13.8	> 100	> 100	> 100	> 100	> 100	13	> 100	> 100	> 100	2.96	3.28	4.27	2.5	3.07	5.75	2.99	3.01	6.25	5
COc1cc(/C=C/C(=O)c2cccc(-n3cc(-c4ccccc4)[nH]c3=O)c2)ccc1O	5.78	> 43	9.91	6.12	18.6	35.5	5.53	18	17.8	7.93	2.19	3.5	3.85	1.78	3.09	4.02	2.07	3.57	4.18	2.37
CCN(CC)CCNc1ccc2nc(C)n3c4ccc(OC)cc4c(=O)c1c23	18.7	15.1	13	2.74	6.68	19.5	2.96	24.1	15	7.88	–	–	–	–	–	–	–	–	–	–
C[C@H]1CCC/C=C/[C@@H]2C[C@H](O)C[C@H]2[C@H](O)C(O)C(O)C(=O)O1 (stereo partly drawn)	> 100	–	> 100	4.52	> 100	> 100	2.31	> 100	> 100	> 100	0.677	1.62	4.07	2.26	0.702	3.75	0.251	3.61	4.54	0.788
Cc1cc(N)c2cc(NC(=O)/C=C\c3ccccc3Cl)ccc2n1	3.07	> 100	0.597	3.29	3.88	3.27	3.31	2.02	3.25	2.42	1.69	> 24.2	0.266	1.71	1.82	1.85	1.67	0.748	1.71	0.924
Cc1nc2ccccc2c(/C=C/c2ccc(C(F)(F)F)cc2)c1C(=O)/C=C/c1ccccc1	3.13	4.76	3.82	3.07	5.75	2.98	4.44	–	4.73	3.07	1.72	1.97	1.55	1.33	1.92	1.54	1.94	–	1.79	1.58
COc1cc2c(cc1OCCCN1CCN(CCCOc3cc4c(cc3OC)C(=O)N3C[C@H](F)C[C@H]3C=N4)CC1)N=C[C@@H]1C[C@@H](F)CN1C2=O	1.23	47.3	0.193	1.16	2.56	> 100	0.797	0.198	–	0.763	0.0216	9.18	0.0373	< 0.041	0.0841	0.07	< 0.045	0.0441	–	0.0263
